Data set [1] concerns the target T1, Sodium-dependent serotonin transporter (Homo sapiens, UniProt P31645). Briefly: Inhibition of human SERT expressed in JAR cells assessed as serotonin uptake at 6 uM. The format is cell-based.
Target sequence in this assay (P31645 whole entry, looked up): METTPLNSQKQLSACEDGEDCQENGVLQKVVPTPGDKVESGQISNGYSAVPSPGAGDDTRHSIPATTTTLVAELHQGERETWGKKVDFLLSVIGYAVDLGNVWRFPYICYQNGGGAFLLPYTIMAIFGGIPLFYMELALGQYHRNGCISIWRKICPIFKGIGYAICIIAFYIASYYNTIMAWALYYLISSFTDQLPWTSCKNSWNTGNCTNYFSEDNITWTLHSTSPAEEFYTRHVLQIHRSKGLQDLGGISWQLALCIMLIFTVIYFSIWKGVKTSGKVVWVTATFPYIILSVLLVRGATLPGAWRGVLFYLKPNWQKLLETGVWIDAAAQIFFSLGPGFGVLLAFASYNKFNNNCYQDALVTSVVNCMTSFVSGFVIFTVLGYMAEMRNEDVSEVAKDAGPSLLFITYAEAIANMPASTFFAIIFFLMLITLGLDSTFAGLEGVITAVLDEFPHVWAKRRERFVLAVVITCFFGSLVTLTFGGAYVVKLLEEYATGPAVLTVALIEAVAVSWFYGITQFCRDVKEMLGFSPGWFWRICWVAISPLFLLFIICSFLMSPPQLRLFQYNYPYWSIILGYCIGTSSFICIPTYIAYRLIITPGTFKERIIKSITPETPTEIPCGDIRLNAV
Data set [2] addresses T1, Sodium-dependent serotonin transporter. The format is cell-based, JAR.
Target sequence in this assay (P31645 whole entry): as the sequence (P31645 whole entry, looked up) above
Data set [3] addresses T2, Sodium-dependent dopamine transporter (Homo sapiens, UniProt Q01959). Briefly: Displacement of [3H]-WIN-35428 from human DAT expressed in CHO cells at 1 uM. The format is cell-based. A general note: In a radioligand displacement assay an active substance lowers the binding of a labelled ligand.
Data set [4] addresses T3, Sodium-dependent noradrenaline transporter (Homo sapiens, UniProt P23975).
Data set [5] addresses T3, Sodium-dependent noradrenaline transporter. The data set can be described thus: biochemical.
The subject of data set [6] is Rattus norvegicus. Briefly: Analgesic activity in Sprague-Dawley rat thermally-stimulated acute pain model assessed as increase in latency to nocicfensive response at 30 mg/kg, po after 1 to 5 hrs by hot plate assay. In kind it is functional, organism-based. More on the design: dose 30 mg/kg. In general terms: Thermal pain tests record how soon the animal reacts.
The subject of data set [7] is Rattus norvegicus. Briefly: Analgesic activity in Sprague-Dawley rat thermally-stimulated acute pain model assessed as increase in latency to nocicfensive response at 10 mg/kg, po after 1 to 5 hrs by hot plate assay. The format is functional, organism-based. On the set-up: dose 10 mg/kg.
Data set [8] deals with Rattus norvegicus. The data set can be described thus: Analgesic activity against carrageenan-induced hyperalgesia in Sprague-Dawley rat assessed as increase in paw withdrawal latency at 10 mg/kg, po after 4 hrs carrageenan challenge. On the set-up: dose 10 mg/kg. In kind it is functional, organism-based.
Data set [9] has as its system Rattus norvegicus. The data set can be described thus: Analgesic activity against carrageenan-induced hyperalgesia in Sprague-Dawley rat assessed as increase in paw withdrawal latency at 30 mg/kg, po after 4 hrs carrageenan challenge. More on the design: dose 30 mg/kg. The format is functional, organism-based.
In data set [10] the test system is Rattus norvegicus. Briefly: Analgesic activity against FCA-induced mechanical hyperalgesia in Sprague-Dawley rat assessed as threshold to paw withdrawal at 3 mg/kg, po administered 24 hrs after FCA challenge measured after 3 hrs. In kind it is functional, organism-based. On the set-up: dose 3 mg/kg.
The test system of data set [11] is Rattus norvegicus. Briefly: Analgesic activity against FCA-induced mechanical hyperalgesia in Sprague-Dawley rat assessed as threshold to paw withdrawal at 3 mg/kg, po administered 24 hrs after FCA challenge measured after 5 hrs. On the set-up: dose 3 mg/kg. The format is functional, organism-based.
Data set [12] has as its system Rattus norvegicus. The data set can be described thus: Analgesic activity against spinal nerve ligation-induced mechanical hyperalgesia in po dosed Sprague-Dawley rat assessed as threshold to paw withdrawal. In kind it is functional, organism-based.
The nature of data set [13]: Plasma clearance in rat at 2 mg/kg, iv. In kind it is ADME, organism-based. More on the design: dose 2 mg/kg, route intravenous.
Data set [14] in a line: Volume of distribution at steady state in rat at 2 mg/kg, iv. On the set-up: dose 2 mg/kg, route intravenous. The note with it: in vivo, read-out: Vdss. In kind it is ADME, organism-based.
Data set [15] can be described thus: Cmax in rat at 10 mg/kg, po. In kind it is ADME, organism-based. More on the design: dose 10 mg/kg, route oral. The note with it: in vivo.
A short description of data set [16]: Tmax in rat at 10 mg/kg, po. In kind it is ADME, organism-based. More on the design: dose 10 mg/kg, route oral. The note with it: in vivo.
Data set [17] is described as follows: Half life in rat at 2 mg/kg, iv. In kind it is ADME, organism-based. On the set-up: dose 2 mg/kg, route intravenous. The note with it: in vivo.
The nature of data set [18]: Half life in rat at 10 mg/kg, po. The format is ADME, organism-based. On the set-up: dose 10 mg/kg, route oral. The note with it: in vivo.
The nature of data set [19]: AUC (0 to infinity) in rat at 2 mg/kg, iv. In kind it is ADME, organism-based. More on the design: time infinity, dose 2 mg/kg, route intravenous. The note with it: plasma.
Data set [20] can be described thus: AUC (0 to infinity) in rat at 10 mg/kg, po. The format is ADME, organism-based. More on the design: time infinity, dose 10 mg/kg, route oral. The note with it: plasma.
Data set [21] is described as follows: Oral bioavailability in rat at 10 mg/kg. The format is ADME, organism-based. The note with it: in vivo.
Data set [22] in a line: Ratio of drug level in brain to plasma in rat. In kind it is ADME. To be noted: read-out: BPR.
For data set [23], the system named is Rattus norvegicus. Briefly: Increase of norepinephrine level in Sprague-Dawley rat medial prefrontal cortex at 30 mg/kg, po by microdialysis assay relative to baseline. The format is functional.
The subject of data set [24] is Rattus norvegicus. Briefly: Increase of serotonin level in Sprague-Dawley rat medial prefrontal cortex at 30 mg/kg, po by microdialysis assay. In kind it is functional, organism-based. More on the design: dose 30 mg/kg.
Data set [25] is filed under the species Homo sapiens. The data set can be described thus: Selectivity ratio of IC50 for human NET over IC50 for human SERT.
The species named for data set [26] is Homo sapiens. The data set can be described thus: Selectivity ratio of IC50 for human NET over IC50 for human DAT.
In data set [27] the target is T2, Sodium-dependent dopamine transporter. Briefly: biochemical.

For orientation: inhibition means the share of the control response that was lost under treatment. Usually IC50 stands for the point on the concentration scale where inhibition reaches its midpoint. High values mean a need for much substance, low ones inhibition by little substance. As usually defined, the clearance is the rate of elimination divided by the concentration. Read a high clearance as a high capacity for elimination. The Cmax is the highest concentration seen after dosing. Broadly, the Tmax is the time at which the peak concentration occurs. The half-life is the time needed for the level to fall by half in the phase considered. A low value points to fast loss. The term AUC(0-inf) denotes total exposure, with the tail of the curve extrapolated. By bioavailability is commonly meant the share of a dose that reaches the circulation, judged against a reference dose that is usually intravenous. A higher bioavailability goes with much systemic uptake.

Activity calls are given as the source filed them.

T2 sequence (Q01959 whole entry): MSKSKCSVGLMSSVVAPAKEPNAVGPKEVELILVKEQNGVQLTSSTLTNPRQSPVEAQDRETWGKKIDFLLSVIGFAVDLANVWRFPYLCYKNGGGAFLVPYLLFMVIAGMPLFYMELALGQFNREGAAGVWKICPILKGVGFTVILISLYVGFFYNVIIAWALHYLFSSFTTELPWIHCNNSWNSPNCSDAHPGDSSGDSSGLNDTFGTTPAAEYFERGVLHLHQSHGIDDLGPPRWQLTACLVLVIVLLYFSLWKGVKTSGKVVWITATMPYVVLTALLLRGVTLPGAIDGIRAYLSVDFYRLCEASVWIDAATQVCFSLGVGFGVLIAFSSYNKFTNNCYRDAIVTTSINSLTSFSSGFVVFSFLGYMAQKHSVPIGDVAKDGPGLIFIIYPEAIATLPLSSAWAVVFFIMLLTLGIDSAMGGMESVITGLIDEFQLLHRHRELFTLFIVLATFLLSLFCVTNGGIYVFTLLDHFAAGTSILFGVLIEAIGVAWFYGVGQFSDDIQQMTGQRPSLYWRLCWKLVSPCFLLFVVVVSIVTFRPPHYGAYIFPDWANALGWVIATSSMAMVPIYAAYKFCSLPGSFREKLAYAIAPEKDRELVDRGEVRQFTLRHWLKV
T3 sequence (P23975 whole entry): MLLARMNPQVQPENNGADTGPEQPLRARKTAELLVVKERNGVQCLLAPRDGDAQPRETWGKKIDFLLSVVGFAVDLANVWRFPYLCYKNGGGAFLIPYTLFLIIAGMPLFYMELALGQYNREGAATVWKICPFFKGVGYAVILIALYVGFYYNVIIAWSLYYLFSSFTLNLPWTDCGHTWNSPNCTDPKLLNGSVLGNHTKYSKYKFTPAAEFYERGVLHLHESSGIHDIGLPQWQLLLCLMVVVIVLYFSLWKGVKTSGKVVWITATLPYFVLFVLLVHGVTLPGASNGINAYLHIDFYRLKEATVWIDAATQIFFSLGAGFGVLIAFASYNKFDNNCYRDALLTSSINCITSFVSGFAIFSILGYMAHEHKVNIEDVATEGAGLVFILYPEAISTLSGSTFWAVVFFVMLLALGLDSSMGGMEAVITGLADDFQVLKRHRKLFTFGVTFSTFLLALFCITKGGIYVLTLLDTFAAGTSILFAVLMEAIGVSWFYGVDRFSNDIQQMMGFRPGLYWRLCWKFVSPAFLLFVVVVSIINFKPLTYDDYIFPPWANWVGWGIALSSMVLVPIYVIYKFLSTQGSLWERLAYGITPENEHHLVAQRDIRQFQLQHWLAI

For the compound `CNC[C@H](O)CCN1c2ccccc2N(c2ccccc2F)S1(=O)=O`, the inhibition in data set [1] amounted to 28%.
Turning to `O=S1(=O)N(CCC2CNCCO2)c2cccc(F)c2N1c1ccccc1F` (configuration not stated), the IC50 in [2] came out at 5790 nM; in [4], 7 nM; in data set [5], 13 nM. The inhibition in data set [3] amounted to 20%.
With `O=S1(=O)N(CC[C@@H]2CNCCO2)c2ccccc2N1c1ccccc1F`, the values for the IC50 in data set [2], in data set [4] and in [5] were 6410 nM, 15 nM and 5 nM, respectively. The outcome in the data set with Rattus norvegicus [6], with Rattus norvegicus [7], in the data set with Rattus norvegicus [8], in the data set on Rattus norvegicus [9], with Rattus norvegicus [10] and with Rattus norvegicus [11] was Active. The Activity entry in the data set with Rattus norvegicus [12] is “Dose-dependent effect”; in the data set on Rattus norvegicus [23] it was 390%. The same compound displayed a clearance in data set [13] of 38 mL/min/kg. For the same compound, in data set [14], the Vd was 5 L/kg. This compound also registered a Cmax in data set [15] of 373 ng/mL. In [16], the Tmax is 1 h. The half-life in [17] and in data set [18] was 1.8 h throughout. In addition, the AUC(0-inf) came to 958 ng·h/mL in data set [19] and 1320 ng·h/mL in data set [20]. Further, the bioavailability in [21] came out at 28%. In data set [22], the Kp was 3.9. For the same compound, in the data set on Rattus norvegicus [24], the outcome was inactive. For the same compound, the Ratio IC50 in the data set listed under Homo sapiens [25] is > 430; in the data set filed under Homo sapiens [26] it was > 548.
Regarding `O=S1(=O)N(CC2CNCCO2)c2ccccc2N1c1ccccc1` (racemic), the results for the inhibition in [1] and in data set [3] were 0% and 32%, respectively. Moreover, the results for the IC50 in data set [4] and in data set [5] were 147 nM and 74 nM, respectively.
For the compound `CN1CCOC(CN2c3ccccc3N(c3ccccc3)S2(=O)=O)C1` (racemic), in [3], the inhibition was 77%. Inhibition in [5] was half-maximal at 2300 nM (IC50).
`O=S1(=O)N(C[C@@H]2CNCCO2)c2ccccc2N1c1ccccc1`: the IC50 in data set [27] turned out to be 792 nM.
In the case of `O=S1(=O)N(CCC2CCCNC2)c2ccccc2N1c1ccccc1` (racemic), the IC50 came to 2980 nM in [2], 54 nM in data set [4] and 30 nM in data set [5]. The compound further displayed an inhibition in data set [3] of 95%.
Take `O=S1(=O)N(CC[C@@H]2CNCCO2)c2ccccc2N1c1ccccc1`: the IC50 in [2] stood at 6770 nM; in [5] it was 5 nM. The inhibition in [1] turned out to be 55%.
On the same counts, the results for `O=S1(=O)N(CC[C@H]2CNCCO2)c2ccccc2N1c1ccccc1` are 1030 nM, 9 nM and 68%.
For the compound `CNC[C@H](CCN1c2ccccc2N(c2ccccc2)S1(=O)=O)OC`, the inhibition in [1] was found to be 52%. For the same compound, the values for the IC50 in data set [5] and in [27] were 103 nM and 1040 nM, respectively.
Consider `O=S1(=O)N(CC[C@@H]2CNCCO2)c2ccccc2N1c1ccc(F)cc1F`, for which the IC50 stood at 4130 nM in data set [2], 143 nM in [5] and 2040 nM in data set [27].
In the case of `O=S1(=O)N(CC[C@@H]2CNCCO2)c2ccccc2N1c1c(F)cc(F)cc1F`, the IC50 turned out to be 1400 nM in data set [2] and 80 nM in data set [5].
The compound `O=S1(=O)N(C[C@H]2CNCCO2)c2ccccc2N1c1ccccc1` returned an IC50 in data set [27] of 341 nM.
Consider `COc1cccc(N2c3ccccc3N(CC[C@@H]3CNCCO3)S2(=O)=O)c1`, for which the IC50 in [2] was 749 nM; in data set [5] it was 99 nM.
Consider `O=S1(=O)N(CC[C@@H]2CNCCO2)c2ccccc2N1c1ccc(F)cc1`, for which the IC50 in data set [5] was found to be 283 nM; in data set [27], 211 nM.
Regarding `O=S1(=O)N(CCC2CNCCO2)c2cc(F)ccc2N1c1ccccc1F` (configuration not stated), the IC50 in [2] came out at 8350 nM; in data set [4], 14 nM; in data set [5] it was 8 nM. For the same compound, the inhibition in data set [3] stood at 43%.
`O=S1(=O)N(CCC2CNCCO2)c2c(F)cccc2N1c1ccccc1F` (configuration not stated): the IC50 was found to be 992 nM in data set [2], 22 nM in data set [4] and 5 nM in [5]. The inhibition in data set [3] stood at 50%.
In the case of `CNC[C@@H](CCN1c2ccccc2N(c2ccccc2)S1(=O)=O)OC`, the half-maximal inhibitory concentration (IC50) in data set [2] was found to be 5100 nM; in data set [5], 13 nM. Also, the inhibition in [3] was 39%.
As for `O=S1(=O)N(CCC2CNCCO2)c2ccccc2N1c1ccccc1` (racemic), the IC50 in data set [2] stood at 1780 nM; in [5], 7 nM; in data set [27], 964 nM.
In the case of `O=S1(=O)N(CCC2CNCCO2)c2ccc(F)cc2N1c1ccccc1F` (configuration not stated), the IC50 in data set [2] worked out at 806 nM; in [4] it was 120 nM; in data set [5], 209 nM. The compound also showed an inhibition in [3] of 23%.

Values taken from ChEMBL document CHEMBL1828571, “Discovery of novel selective norepinephrine inhibitors: 1-(2-morpholin-2-ylethyl)-3-aryl-1,3-dihydro-2,1,3-benzothiadiazole 2,2-dioxides (WYE-114152)” (J Med Chem, 2011).
